Assay results taken from the CheMixHub viscosity set.
± gives the uncertainty stated by the source.

Experiment: xn = mol fraction of the nth substance listed

SMILES: CN(C)c1ccccc1 + CCCO
- viscosity (303.15 K, 101 kPa, x1 = 0.0503): 1.685 ± 0.016 mPa·s
- viscosity (303.15 K, 101 kPa, x1 = 0.1049): 1.625 ± 0.015 mPa·s
- viscosity (303.15 K, 101 kPa, x1 = 0.1825): 1.552 ± 0.015 mPa·s
- viscosity (303.15 K, 101 kPa, x1 = 0.2575): 1.482 ± 0.014 mPa·s
- viscosity (303.15 K, 101 kPa, x1 = 0.3423): 1.413 ± 0.014 mPa·s
- viscosity (303.15 K, 101 kPa, x1 = 0.3929): 1.377 ± 0.013 mPa·s
- viscosity (303.15 K, 101 kPa, x1 = 0.4121): 1.365 ± 0.013 mPa·s
- viscosity (303.15 K, 101 kPa, x1 = 0.4703): 1.328 ± 0.013 mPa·s
- viscosity (303.15 K, 101 kPa, x1 = 0.5523): 1.29 ± 0.013 mPa·s
- viscosity (303.15 K, 101 kPa, x1 = 0.6229): 1.265 ± 0.013 mPa·s
- viscosity (303.15 K, 101 kPa, x1 = 0.7221): 1.242 ± 0.012 mPa·s
- viscosity (303.15 K, 101 kPa, x1 = 0.8096): 1.225 ± 0.012 mPa·s
- viscosity (303.15 K, 101 kPa, x1 = 0.9023): 1.198 ± 0.012 mPa·s
- viscosity (303.15 K, 101.33 kPa, x1 = 0.1011): 1.587 ± 0.025 mPa·s
- viscosity (303.15 K, 101.33 kPa, x1 = 0.1989): 1.345 ± 0.022 mPa·s
- viscosity (303.15 K, 101.33 kPa, x1 = 0.2994): 1.249 ± 0.021 mPa·s
- viscosity (303.15 K, 101.33 kPa, x1 = 0.4015): 1.194 ± 0.02 mPa·s
- viscosity (303.15 K, 101.33 kPa, x1 = 0.4992): 1.153 ± 0.019 mPa·s
- viscosity (303.15 K, 101.33 kPa, x1 = 0.598): 1.126 ± 0.019 mPa·s
- viscosity (303.15 K, 101.33 kPa, x1 = 0.7024): 1.117 ± 0.019 mPa·s
- viscosity (303.15 K, 101.33 kPa, x1 = 0.798): 1.126 ± 0.019 mPa·s
- viscosity (303.15 K, 101.33 kPa, x1 = 0.9026): 1.154 ± 0.02 mPa·s
- viscosity (308.15 K, 101.33 kPa, x1 = 0.1011): 1.335 ± 0.022 mPa·s
- viscosity (308.15 K, 101.33 kPa, x1 = 0.1989): 1.214 ± 0.02 mPa·s
- viscosity (308.15 K, 101.33 kPa, x1 = 0.2994): 1.134 ± 0.019 mPa·s
- viscosity (308.15 K, 101.33 kPa, x1 = 0.4015): 1.09 ± 0.018 mPa·s
- viscosity (308.15 K, 101.33 kPa, x1 = 0.4992): 1.057 ± 0.018 mPa·s
- viscosity (308.15 K, 101.33 kPa, x1 = 0.598): 1.034 ± 0.018 mPa·s
- viscosity (308.15 K, 101.33 kPa, x1 = 0.7024): 1.044 ± 0.018 mPa·s
- viscosity (308.15 K, 101.33 kPa, x1 = 0.798): 1.037 ± 0.018 mPa·s
- viscosity (308.15 K, 101.33 kPa, x1 = 0.9026): 1.071 ± 0.019 mPa·s
- viscosity (313.15 K, 101.33 kPa, x1 = 0.1011): 1.205 ± 0.02 mPa·s
- viscosity (313.15 K, 101.33 kPa, x1 = 0.1989): 1.1 ± 0.018 mPa·s
- viscosity (313.15 K, 101.33 kPa, x1 = 0.2994): 1.033 ± 0.017 mPa·s
- viscosity (313.15 K, 101.33 kPa, x1 = 0.4015): 0.9974 ± 0.017 mPa·s
- viscosity (313.15 K, 101.33 kPa, x1 = 0.4992): 0.9763 ± 0.017 mPa·s
- viscosity (313.15 K, 101.33 kPa, x1 = 0.598): 0.9608 ± 0.017 mPa·s
- viscosity (313.15 K, 101.33 kPa, x1 = 0.7024): 0.965 ± 0.017 mPa·s
- viscosity (313.15 K, 101.33 kPa, x1 = 0.798): 0.9602 ± 0.017 mPa·s
- viscosity (313.15 K, 101.33 kPa, x1 = 0.9026): 0.9947 ± 0.017 mPa·s
- viscosity (318.15 K, 101.33 kPa, x1 = 0.1011): 1.091 ± 0.018 mPa·s
- viscosity (318.15 K, 101.33 kPa, x1 = 0.1989): 1.005 ± 0.017 mPa·s
- viscosity (318.15 K, 101.33 kPa, x1 = 0.2994): 0.9491 ± 0.016 mPa·s
- viscosity (318.15 K, 101.33 kPa, x1 = 0.4015): 0.9328 ± 0.016 mPa·s
- viscosity (318.15 K, 101.33 kPa, x1 = 0.4992): 0.9019 ± 0.016 mPa·s
- viscosity (318.15 K, 101.33 kPa, x1 = 0.598): 0.8881 ± 0.015 mPa·s
- viscosity (318.15 K, 101.33 kPa, x1 = 0.7024): 0.8981 ± 0.016 mPa·s
- viscosity (318.15 K, 101.33 kPa, x1 = 0.798): 0.8961 ± 0.016 mPa·s
- viscosity (318.15 K, 101.33 kPa, x1 = 0.9026): 0.9284 ± 0.016 mPa·s
- viscosity (323.15 K, 101.33 kPa, x1 = 0.1011): 0.9913 ± 0.017 mPa·s
- viscosity (323.15 K, 101.33 kPa, x1 = 0.1989): 0.9196 ± 0.016 mPa·s
- viscosity (323.15 K, 101.33 kPa, x1 = 0.2994): 0.8709 ± 0.015 mPa·s
- viscosity (323.15 K, 101.33 kPa, x1 = 0.4015): 0.8513 ± 0.015 mPa·s
- viscosity (323.15 K, 101.33 kPa, x1 = 0.4992): 0.8384 ± 0.015 mPa·s
- viscosity (323.15 K, 101.33 kPa, x1 = 0.598): 0.8254 ± 0.015 mPa·s
- viscosity (323.15 K, 101.33 kPa, x1 = 0.7024): 0.8357 ± 0.015 mPa·s
- viscosity (323.15 K, 101.33 kPa, x1 = 0.798): 0.8364 ± 0.015 mPa·s
- viscosity (323.15 K, 101.33 kPa, x1 = 0.9026): 0.8751 ± 0.016 mPa·s

SMILES: CCCCC(C)O (centres undefined) + CCO
- viscosity (298.15 K, 101.33 kPa, x2 = 0.1065): 3.783 ± 0.03 mPa·s
- viscosity (298.15 K, 101.33 kPa, x2 = 0.2102): 3.485 ± 0.028 mPa·s
- viscosity (298.15 K, 101.33 kPa, x2 = 0.3167): 3.115 ± 0.025 mPa·s
- viscosity (298.15 K, 101.33 kPa, x2 = 0.4096): 2.827 ± 0.022 mPa·s
- viscosity (298.15 K, 101.33 kPa, x2 = 0.5036): 2.512 ± 0.02 mPa·s
- viscosity (298.15 K, 101.33 kPa, x2 = 0.6033): 2.16 ± 0.017 mPa·s
- viscosity (298.15 K, 101.33 kPa, x2 = 0.7079): 1.836 ± 0.015 mPa·s
- viscosity (298.15 K, 101.33 kPa, x2 = 0.8023): 1.572 ± 0.013 mPa·s
- viscosity (298.15 K, 101.33 kPa, x2 = 0.9063): 1.301 ± 0.01 mPa·s

SMILES: C=CC#N + CCCO
- viscosity (298.15 K, 101.33 kPa, x1 = 0.1031): 1.409 ± 0.018 mPa·s
- viscosity (298.15 K, 101.33 kPa, x1 = 0.203): 1.074 ± 0.014 mPa·s
- viscosity (298.15 K, 101.33 kPa, x1 = 0.307): 0.85 ± 0.011 mPa·s
- viscosity (298.15 K, 101.33 kPa, x1 = 0.4079): 0.688 ± 0.009 mPa·s
- viscosity (298.15 K, 101.33 kPa, x1 = 0.5104): 0.578 ± 0.008 mPa·s
- viscosity (298.15 K, 101.33 kPa, x1 = 0.6066): 0.497 ± 0.007 mPa·s
- viscosity (298.15 K, 101.33 kPa, x1 = 0.7057): 0.435 ± 0.007 mPa·s
- viscosity (298.15 K, 101.33 kPa, x1 = 0.8002): 0.393 ± 0.006 mPa·s
- viscosity (298.15 K, 101.33 kPa, x1 = 0.9032): 0.36 ± 0.006 mPa·s
- viscosity (303.15 K, 101.33 kPa, x1 = 0.1031): 1.264 ± 0.016 mPa·s
- viscosity (303.15 K, 101.33 kPa, x1 = 0.203): 0.975 ± 0.013 mPa·s
- viscosity (303.15 K, 101.33 kPa, x1 = 0.307): 0.778 ± 0.01 mPa·s
- viscosity (303.15 K, 101.33 kPa, x1 = 0.4079): 0.635 ± 0.009 mPa·s
- viscosity (303.15 K, 101.33 kPa, x1 = 0.5104): 0.538 ± 0.008 mPa·s
- viscosity (303.15 K, 101.33 kPa, x1 = 0.6066): 0.465 ± 0.007 mPa·s
- viscosity (303.15 K, 101.33 kPa, x1 = 0.7057): 0.412 ± 0.006 mPa·s
- viscosity (303.15 K, 101.33 kPa, x1 = 0.8002): 0.373 ± 0.006 mPa·s
- viscosity (303.15 K, 101.33 kPa, x1 = 0.9032): 0.343 ± 0.006 mPa·s
- viscosity (308.15 K, 101.33 kPa, x1 = 0.1031): 1.139 ± 0.015 mPa·s
- viscosity (308.15 K, 101.33 kPa, x1 = 0.203): 0.888 ± 0.012 mPa·s
- viscosity (308.15 K, 101.33 kPa, x1 = 0.307): 0.71 ± 0.01 mPa·s
- viscosity (308.15 K, 101.33 kPa, x1 = 0.4079): 0.59 ± 0.008 mPa·s
- viscosity (308.15 K, 101.33 kPa, x1 = 0.5104): 0.503 ± 0.007 mPa·s
- viscosity (308.15 K, 101.33 kPa, x1 = 0.6066): 0.438 ± 0.007 mPa·s
- viscosity (308.15 K, 101.33 kPa, x1 = 0.7057): 0.389 ± 0.006 mPa·s
- viscosity (308.15 K, 101.33 kPa, x1 = 0.8002): 0.355 ± 0.006 mPa·s
- viscosity (308.15 K, 101.33 kPa, x1 = 0.9032): 0.328 ± 0.005 mPa·s

SMILES: CC(C)(C)Br + CCCCO
- viscosity (298.15 K, 101.3 kPa, x1 = 0.0518): 2.264 ± 0.016 mPa·s
- viscosity (298.15 K, 101.3 kPa, x1 = 0.106): 2.002 ± 0.015 mPa·s
- viscosity (298.15 K, 101.3 kPa, x1 = 0.2079): 1.638 ± 0.013 mPa·s
- viscosity (298.15 K, 101.3 kPa, x1 = 0.3109): 1.377 ± 0.011 mPa·s
- viscosity (298.15 K, 101.3 kPa, x1 = 0.4067): 1.203 ± 0.01 mPa·s
- viscosity (298.15 K, 101.3 kPa, x1 = 0.5054): 1.055 ± 0.0094 mPa·s
- viscosity (298.15 K, 101.3 kPa, x1 = 0.6023): 0.9468 ± 0.0089 mPa·s
- viscosity (298.15 K, 101.3 kPa, x1 = 0.7004): 0.8591 ± 0.0087 mPa·s
- viscosity (298.15 K, 101.3 kPa, x1 = 0.7993): 0.7905 ± 0.0085 mPa·s
- viscosity (298.15 K, 101.3 kPa, x1 = 0.901): 0.7428 ± 0.0085 mPa·s
- viscosity (313.15 K, 101.3 kPa, x1 = 0.0518): 1.575 ± 0.013 mPa·s
- viscosity (313.15 K, 101.3 kPa, x1 = 0.106): 1.41 ± 0.012 mPa·s
- viscosity (313.15 K, 101.3 kPa, x1 = 0.2079): 1.19 ± 0.0098 mPa·s
- viscosity (313.15 K, 101.3 kPa, x1 = 0.3109): 1.02 ± 0.0087 mPa·s
- viscosity (313.15 K, 101.3 kPa, x1 = 0.4067): 0.9075 ± 0.0081 mPa·s
- viscosity (313.15 K, 101.3 kPa, x1 = 0.5054): 0.8127 ± 0.0075 mPa·s
- viscosity (313.15 K, 101.3 kPa, x1 = 0.6023): 0.7355 ± 0.0072 mPa·s
- viscosity (313.15 K, 101.3 kPa, x1 = 0.7004): 0.6723 ± 0.007 mPa·s
- viscosity (313.15 K, 101.3 kPa, x1 = 0.7993): 0.6264 ± 0.0069 mPa·s
- viscosity (313.15 K, 101.3 kPa, x1 = 0.901): 0.5951 ± 0.007 mPa·s
